Measured values from patent US7678913B2, “Ureas as factor Xa inhibitors” (Portola Pharmaceuticals, Inc., priority 2004, dated 2010).

Target: T1, human plasma protein factor Xa (Homo sapiens, UniProt P00742)
T1 construct: measure proteolytic activity of the enzyme (factor Xa); purchased Haematologic Technologies (Essex Junction, Vt.); host or cells: human plasma
Assay: Factor Xa IC50 determination (cleavage of chromogenic substrate S-2765)
Type: biochemical
Conditions: fXa 1 nM, S-2765 100 μM, Tris buffered saline pH 7.4, room temperature
Excerpt: This example illustrates methods for evaluating the compounds of the invention, along with results obtained for such assays. The in vitro and in vivo Factor Xa isoform activities of the inventive compounds can be determined by various procedures known in the art, such as a test for their ability to inhibit the activity of the Factor Xa isoform. […] The IC50 value is the concentration (in nM) of the compound required to provide 50% inhibition of Factor Xa isoform.
An in vitro assay for detecting and measuring inhibition activity against Factor Xa is as follows:
• The substrate S-2765 (Z-D-Arg-Gly-Arg-pNA.HCl) was obtained from Diapharma (West Chester, Ohio). Enzyme: • The human plasma protein factor Xa was purchased from Haematologic Technologies (Essex Junction, Vt.). Methods
All assays, which are performed in 96-well microtiter plates, measure proteolytic activity of the enzyme (factor Xa) by following cleavage of paranitroanilide substrate. The assay buffer used for proteolytic assays was Tris buffered saline (20 mM Tris, 150 mM NaCl, 5 mM CaCl2, 0.1% Bovine serum albumin (BSA), 5% Dimethly Sulfoxide (DMSO) pH 7.4). In a 96-well microtiter plate, inhibitor was serially diluted to give a range of concentrations from 0.01 nM to 10 μM (final). Duplicate sets of wells were assayed and control wells without inhibitor were included. Enzyme was added to each well,(fXa concentration=1nM), the plate was shaken for 5 seconds and then incubated for 5 minutes at room temperature. S2765 was added (100 μM final) and the plate was shaken for 5 seconds (final liquid volume in each well was 200 μl). The degree of substrate hydrolysis was measured at 405 nm on a Thermomax plate reader (Molecular Devices, Sunnyvale, Calif.) for 2 minutes. The initial velocities (mOD/min), for each range of inhibitor concentrations, were fitted to a four parameter equation using Softmax data analysis software. The parameter C, derived from the resulting curve-fit, corresponded to the concentration for half maximal inhibition (IC50).

T1 sequence (P00742 235-488 limits assumed): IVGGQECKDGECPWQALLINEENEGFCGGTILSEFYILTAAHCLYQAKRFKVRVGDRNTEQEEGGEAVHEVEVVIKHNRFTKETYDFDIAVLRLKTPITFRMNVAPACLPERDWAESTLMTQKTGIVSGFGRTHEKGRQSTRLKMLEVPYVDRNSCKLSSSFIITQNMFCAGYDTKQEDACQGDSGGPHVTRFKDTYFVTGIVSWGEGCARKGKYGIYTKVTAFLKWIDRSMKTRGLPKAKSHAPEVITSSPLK
T1 sequence (P00742 41-179 partner limits assumed): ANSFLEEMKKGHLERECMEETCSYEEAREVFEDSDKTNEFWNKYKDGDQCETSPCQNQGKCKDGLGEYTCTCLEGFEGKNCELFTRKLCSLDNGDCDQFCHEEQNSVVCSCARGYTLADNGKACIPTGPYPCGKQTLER

Compound	IC50 [nM]
C#CCN(C)C(=N)c1ccc(NC(=O)C(NC(=O)Nc2ccc(Cl)cc2)c2ccccc2)cc1 (stereo not shown) [Example 27, N-[4-(N-methyl-N-propargylaminoimino)phenyl]-2-phenyl-2-(4-chlorophenylaminocarbonylamino)-acetamide]	≤ 100
N=C(c1ccc(NC(=O)C(NC(=O)Nc2ccc(Cl)cc2)c2ccccc2)cc1)N1CCC1 (stereo not shown) [Example 28]	≤ 100
N=C(c1ccc(NC(=O)C(NC(=O)Nc2ccc(Cl)cc2)c2ccccc2)cc1)N1CCCC1 (stereo not shown) [Example 29]	≤ 100
CN1CCN=C1c1ccc(NC(=O)C(NC(=O)Nc2ccc(Br)cc2)c2cccs2)cc1 (stereo not shown) [Example 30, N-[4-(1-methyl-4,5-dihydro-1H-imidazol-2-yl)phenyl]-2-(2-thienyl)-2-(4-bromophenylaminocarbonylamino)-acetamide]	≤ 100
CN(C)C(=N)c1ccc(NC(=O)C(NC(=O)Nc2ccc(Cl)cc2)c2ccccc2)c(F)c1 (stereo not shown) [Example 33, N-[4-(dimethylaminoimino)-2-fluorophenyl]-2-phenyl-2-(4-chlorophenylaminocarbonylamino)-acetamide]	≤ 100
C=CCN(C)C(=N)c1ccc(NC(=O)C(NC(=O)Nc2ccc(Cl)cc2)c2ccccc2)c(F)c1 (stereo not shown) [Example 35, N-[4-(N-methyl-N-allylaminoimino)-2-fluorophenyl]-2-phenyl-2-(4-chlorophenylaminocarbonylamino)-acetamide]	≤ 100
C#CCN(C)C(=N)c1ccc(NC(=O)C(NC(=O)Nc2ccc(Cl)cc2)c2ccccc2)c(F)c1 (stereo not shown) [Example 36, N-[4-(N-methyl-N-propargylaminoimino)-2-fluorophenyl]-2-phenyl-2-(4-chlorophenylaminocarbonylamino)-acetamide]	≤ 100
CNC(=N)c1ccc(NC(=O)C(NC(=O)Nc2ccc(Cl)cc2)c2ccccc2)c(F)c1 (stereo not shown) [Example 37, N-(4-methylaminoimino-2-fluorophenyl)-2-phenyl-2-(4-chlorophenylamino-carbonylamino)-acetamide]	≤ 100
N=C(c1ccc(NC(=O)C(NC(=O)Nc2ccc(Cl)cc2)c2ccccc2)c(F)c1)N1CCCC1 (stereo not shown) [Example 38, N-[4-(pyrrolidin-1-ylimino)-2-fluorophenyl]-2-phenyl-2-(4-chlorophenylaminocarbonylamino)-acetamide]	≤ 100
N=C(c1ccc(NC(=O)C(NC(=O)Nc2ccc(Cl)cc2)c2ccccc2)c(F)c1)N1CCC1 (stereo not shown) [Example 39]	≤ 100
CN1CCN=C1c1ccc(NC(=O)C(NC(=O)Nc2ccc(Br)cc2)c2ccccc2F)cc1 (stereo not shown) [Example 40, N-[4-(1-methyl-4,5-dihydro-1H-imidazol-2-yl)phenyl]-2-(2-fluorophenyl)-2-(4-bromophenylaminocarbonylamino)-acetamide]	≤ 100
N=C(c1ccc(NC(=O)C(NC(=O)Nc2ccc(Cl)cc2)c2ccccc2F)cc1)N1CCCC1 (stereo not shown) [Example 41]	≤ 100
N=C(c1ccc(NC(=O)C(NC(=O)Nc2ccc(Cl)cc2)c2ccccc2F)cc1)N1CCCCC1 (stereo not shown) [Example 42]	≤ 100
N=C(c1ccc(NC(=O)C(NC(=O)Nc2ccc(Cl)cc2)c2ccccc2F)c(F)c1)N1CCCC1 (stereo not shown) [Example 47]	≤ 100
CN(C)NC(=N)c1ccc(NC(=O)C(NC(=O)Nc2ccc(Cl)cc2)c2ccccc2F)c(F)c1 (stereo not shown) [Example 48, N-[4-(2,2-dimethylhydrazinoimino)-2-fluorophenyl]-2-(2-fluorophenyl)-2-(4-chlorophenylaminocarbonylamino)-acetamide]	100 to 500
O=C(Nc1ccc(Cl)cc1)NC(C(=O)Nc1ccc(-c2cc[n+]([O-])cc2)cc1)c1ccccc1F (stereo not shown) [Example 50, N-[4-(N-oxo-pyridin-4-yl)phenyl]-2-(2-fluorophenyl)-2-(4-chlorophenylaminocarbonylamino)-acetamide]	100 to 500
O=C(Nc1ccc(Br)cc1)NC(C(=O)Nc1ccc(-c2cccc[n+]2[O-])cc1)c1ccccc1F (stereo not shown) [Example 52, N-[4-(N-oxo-pyridin-2-yl)phenyl]-2-(2-fluorophenyl)-2-(4-bromophenylaminocarbonylamino)-acetamide]	≤ 100
O=C(Nc1ccc(Cl)cc1)NC(C(=O)NCC1CCNCC1)c1ccccc1F (stereo not shown) [Example 53, N-(piperidin-4-ylmethyl)-2-(2-fluorophenyl)-2-(4-chlorophenylaminocarbonylamino)-acetamide]	≥ 500
CN(C)Cc1nccn1-c1ccc(NC(=O)C(NC(=O)Nc2ccc(Cl)cc2)c2ccccc2F)c(F)c1 (stereo not shown) [Example 58, N-[4-(2-dimethylaminomethyl-imidazol-1-yl)-2-fluorophenyl]-2-(2-fluorophenyl)-2-(4-chlorophenylaminocarbonylamino)-acetamide]	≤ 100
CN1CCN=C1c1ccc(NC(=O)[C@H](CC(=O)OCc2ccccc2)NC(=O)Nc2ccc(Cl)cc2)cc1 [Example 59]	≤ 100
CN1CCN=C1c1ccc(NC(=O)[C@H](CC(=O)O)NC(=O)Nc2ccc(Cl)cc2)cc1 [Example 60, (2S) N-[4-(1-methyl-4,5-dihydro-1H-imidazol-2-yl)phenyl]-2-carboxymethyl-2-(4-chlorophenylaminocarbonylamino)-acetamide]	≥ 500

Results, then the molecule that gave them:

IC50 [nM]	Compound
≤ 100	CN1CCN=C1c1ccc(NC(=O)[C@@H](NC(=O)Nc2ccc(Cl)cc2)c2ccccc2)cc1 [Example 31, (2S) N-[4-(1-methyl-4,5-dihydro-1H-imidazol-2-yl)phenyl]-2-phenyl-2-(4-chlorophenylaminocarbonylamino)-acetamide]
≤ 100	CN1CCN=C1c1ccc(NC(=O)[C@H](NC(=O)Nc2ccc(Cl)cc2)c2ccccc2)cc1 [Example 32, (2R) N-[4-(1-methyl-4,5-dihydro-1H-imidazol-2-yl)phenyl]-2-phenyl-2-(4-chlorophenylaminocarbonylamino)-acetamide]
≤ 100	CCN(C)C(=N)c1ccc(NC(=O)C(NC(=O)Nc2ccc(Cl)cc2)c2ccccc2)c(F)c1 (stereo not shown) [Example 34, N-[4-(N-methyl-N-ethylaminoimino)-2-fluorophenyl]-2-phenyl-2-(4-chlorophenylaminocarbonylamino)-acetamide]
≤ 100	CN(C)C(=N)c1ccc(NC(=O)C(NC(=O)Nc2ccc(Cl)cc2)c2ccccc2F)cc1 (stereo not shown) [Example 43, N-[4-(dimethylaminoimino)phenyl]-2-(2-fluorophenyl)-2-(4-chlorophenylaminocarbonylamino)-acetamide]
≤ 100	N=C(c1ccc(NC(=O)C(NC(=O)Nc2ccc(Br)cc2)c2ccccc2F)cc1)N1CCCC1 (stereo not shown) [Example 44]
≤ 100	N=C(c1ccc(NC(=O)C(NC(=O)Nc2ccc(Br)cc2)c2ccccc2F)cc1)N1CCCCC1 (stereo not shown) [Example 45, N-[4-(piperidin-1-ylimino)phenyl]-2-(2-fluorophenyl)-2-(4-bromophenylaminocarbonylamino)-acetamide]
100 to 500	O=C(Nc1ccc(Cl)cc1)NC(C(=O)Nc1ccc(-c2ccncc2)cc1)c1ccccc1F (stereo not shown) [Example 49, N-[4-(pyridin-4-yl)phenyl]-2-(2-fluorophenyl)-2-(4-chlorophenylaminocarbonylamino)-acetamide]
≤ 100	O=C(Nc1ccc(Cl)cc1)NC(C(=O)Nc1ccc(-c2cccc[n+]2[O-])cc1)c1ccccc1F (stereo not shown) [Example 51, N-[4-(N-oxo-pyridin-2-yl)phenyl]-2-(2-fluorophenyl)-2-(4-chlorophenylaminocarbonylamino)-acetamide]
100 to 500	CC(=N)N1CCC(CNC(=O)C(NC(=O)Nc2ccc(Cl)cc2)c2ccccc2F)CC1 (stereo not shown) [Example 54, N-[(N-acetimidyl-piperidin-4-yl)methyl]-2-(2-fluorophenyl)-2-(4-chlorophenylaminocarbonylamino)-acetamide]
≤ 100	CN(C)Cc1ccccc1-c1ccc(NC(=O)C(NC(=O)Nc2ccc(Cl)cc2)c2ccccc2F)cc1 (stereo not shown) [Example 55, N-[4-(2-dimethylaminomethyl-phenyl)phenyl]-2-(2-fluorophenyl)-2-(4-chlorophenylaminocarbonylamino)-acetamide]
≤ 100	CN(C)Cc1ccccc1-c1ccc(NC(=O)C(NC(=O)Nc2ccc(Cl)cc2)c2ccccc2F)c(F)c1 (stereo not shown) [Example 56, N-[4-(2-dimethylaminomethyl-phenyl)-2-fluorophenyl]-2-(2-fluorophenyl)-2-(4-chlorophenylaminocarbonylamino)-acetamide]
≤ 100	CN(C)Cc1ccccc1-c1ccc(NC(=O)C(NC(=O)Nc2ccc(Br)cc2)c2ccccc2F)c(F)c1 (stereo not shown) [Example 57, N-[4-(2-dimethylaminomethyl-phenyl)-2-fluorophenyl]-2-(2-fluorophenyl)-2-(4-bromophenylaminocarbonylamino)-acetamide]
100 to 500	CN1CCN=C1c1ccc(NC(=O)[C@@H](CC(=O)OCc2ccccc2)NC(=O)Nc2ccc(Cl)cc2)cc1 [Example 61, (2R) N-[4-(1-methyl-4,5-dihydro-1H-imidazol-2-yl)phenyl]-2-benzyloxycarbonylmethyl-2-(4-chlorophenylaminocarbonylamino)-acetamide]
